Test results taken from patent US10688093B2, “Methods, compositions, and uses of novel Fyn kinase inhibitors” (priority 2015, dated 2020).

target: full-length recombinant human FYN A (Homo sapiens (Human), UniProt P06241); test: ADP-Glo Kinase Assay of FYN kinase inhibition; format: biochemical; conditions: primary screen, initial compounds
Summary of the method: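 GST-tagged full-length FYN A (baculovirus, Sf9) at 3 pg preincubated 30 min RT with compound (10-point 3-fold series from 10 μM) in Tris pH 7.5/MgCl2 buffer. 12-mer tyrosine peptide plus 12.5 pmol ATP added, 90 min RT; ADP measured by ADP-Glo luminescence, IC50 from dose-response.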

full-length recombinant human FYN A, sequence (P06241 whole entry): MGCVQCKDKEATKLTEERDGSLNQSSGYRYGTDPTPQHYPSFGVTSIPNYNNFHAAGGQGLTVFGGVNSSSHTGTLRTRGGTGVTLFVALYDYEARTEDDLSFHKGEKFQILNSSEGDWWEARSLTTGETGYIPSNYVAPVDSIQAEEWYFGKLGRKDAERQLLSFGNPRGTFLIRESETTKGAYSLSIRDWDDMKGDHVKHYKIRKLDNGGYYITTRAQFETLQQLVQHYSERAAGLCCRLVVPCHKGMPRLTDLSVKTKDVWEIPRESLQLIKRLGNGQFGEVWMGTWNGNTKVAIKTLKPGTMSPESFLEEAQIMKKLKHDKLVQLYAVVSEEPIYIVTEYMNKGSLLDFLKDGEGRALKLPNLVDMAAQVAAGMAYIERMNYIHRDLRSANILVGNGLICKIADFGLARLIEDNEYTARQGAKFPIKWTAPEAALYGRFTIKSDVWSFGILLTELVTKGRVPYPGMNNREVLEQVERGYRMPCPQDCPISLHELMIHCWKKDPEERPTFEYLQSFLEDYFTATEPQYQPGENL

| SMILES | IC50 [nM] |
| --- | --- |
| CC(=O)c1cccc(-c2cnc3ccc(-c4cccnc4)nn23)c1 [Compound 427, 1-[3-[6-(3-pyridyl)imidazo [1,2-b]pyridazin-3-yl]phenyl] ethanone] | 1230 |
| COc1cccc(-c2ccc3ncc(-c4cccc(C(C)=O)c4)n3n2)c1 [Compound 428, 1-[3-[6-(3-methoxyphenyl)imidazo[1,2-b]pyridazin-3-yl]phenyl] ethanone] | 1780 |
| Fc1ccc(Cc2ccc3ncc(-c4ccncc4)n3n2)cc1 [Compound 429, 6-[(4-fluorophenyl)methyl]-3-(4-pyridyl)imidazo [1,2-b]pyridazine] | 1450 |
| Nc1cccc(-c2ccc3ncc(-c4ccc5c(c4)OCO5)n3n2)c1 [Compound 430, 3-[3-(1,3-benzodioxol-5-yl)imidazo[1,2-b]pyridazin-6-yl]aniline] | 843 |
| c1cc(-c2ccc3ncc(-c4ccc5c(c4)OCO5)n3n2)co1 [Compound 431, 3-(1,3-benzodioxol-5-yl)-6-(3-furyl) imidazo[1,2-b]pyridazine] | 1600 |
| COc1ccc(-c2ccc3ncc(-c4ccc(CO)cc4)n3n2)cc1OC [Compound 432, [4-[6-(3,4-dimethoxyphenyl)imidazo[1,2-b]pyridazin-3-yl]phenyl] methanol] | 3940 |
| CN(C)CCNC(=O)c1cccc(-c2ccc3ncc(-c4ccc5c(c4)OCO5)n3n2)c1 [Compound 433, 3-[3-(1,3-benzodioxol-5-yl)imidazo[1,2-b]pyridazin-6-yl]-N-(2-dimethylamino-ethyl)benzamide] | 393 |
| CC(=O)Nc1cccc(-c2cnc3ccc(-c4ccc(F)c(Cl)c4)nn23)c1 [Compound 434, N-[3-[6-(3-chloro-4-fluoro-phenyl)imidazo [1,2-b]pyridazin-3-yl]phenyl] acetamide] | 525 |
| OCc1ccc(-c2cnc3ccc(-c4cccc(O)c4)nn23)cc1 [Compound 435, 3-[3-[4-(hydroxymethyl)phenyl]imidazo [1,2-b]pyridazin-6-yl]phenol] | 1140 |
| COc1ccc(-c2ccc3ncc(-c4cccc(CO)c4)n3n2)cc1OC [Compound 436, [3-[6-(3,4-dimethoxyphenyl)imidazo[1,2-b]pyridazin-3-yl]phenyl] methanol] | 749 |
| CC(=O)c1cccc(-c2ccc3ncc(-c4cccc(C(C)=O)c4)n3n2)c1 [Compound 437, 1-[3-[3-(3-acetylphenyl)imidazo[1,2-b]pyridazin-6-yl]phenyl] ethanone] | 582 |
| CNc1ccc2ncc(-c3ccsc3)n2n1 [Compound 437_0074, N-methyl-3-(3-thienyl)imidazo [1,2-b]pyridazin-6-amine] | 4230 |
| CNc1ccc2ncc(-c3ccc(OC)c(OC)c3)n2n1 [Compound 437_0079, 3-(3,4-dimethoxyphenyl)-N-methyl-imidazo[1,2-b]pyridazin-6-amine] | 1240 |
| CNc1ccc2ncc(-c3cccc(NC(C)=O)c3)n2n1 [Compound 437_0081, N-[3-[6-(methylamino)imidazo[1,2-b]pyridazin-3-yl]phenyl] acetamide] | 1750 |
| CNc1ccc2ncc(-c3ccc(OC)cc3)n2n1 [Compound 437_0280, 3-(4-methoxyphenyl)-N-methyl-imidazo[1,2-b]pyridazin-6-amine] | 4160 |
| CNc1ccc2ncc(-c3cccc(O)c3)n2n1 [Compound 437_0284, 3-[6-(methyl-amino)imidazo[1,2-b]pyridazin-3-yl]phenol] | 2180 |
| CNc1ccc2ncc(-c3ccc(OC)nc3)n2n1 [Compound 437_0311, 3-(6-methoxy-3-pyridyl)-N-methyl-imidazo[1,2-b]pyridazin-6-amine] | 4460 |
| CNc1ccc2ncc(-c3ccc(F)cc3)n2n1 [Compound 437_0339, 3-(4-fluoro-phenyl)-N-methyl-imidazo[1,2-b]pyridazin-6-amine] | 3260 |
| CNc1ccc2ncc(-c3ccccc3O)n2n1 [Compound 437_0340, 2-[6-(methylamino)imidazo[1,2-b]pyridazin-3-yl]phenol] | 1130 |
| CNc1ccc2ncc(-c3cccc(C(=O)N(C)C)c3)n2n1 [Compound 437_0349, N,N-dimethyl-3-[6-(methylamino)imidazo[1,2-b]pyridazin-3-yl]benzamide] | 2940 |
| CNc1ccc2ncc(-c3cnn(C)c3)n2n1 [Compound 437_7468, N-methyl-3-(1-methylpyrazol-4-yl)imidazo[1,2-b]pyridazin-6-amine] | 5630 |
| CN(C)CCNC(=O)c1cccc(-c2ccc3ncc(-c4cccs4)n3n2)c1 [Compound 438, N-(2-dimethyl-aminoethyl)-3-[3-(2-thienyl)imidazo[1,2-b]pyridazin-6-yl]benzamide] | 1160 |
| c1ccc(-c2ccc3ncc(-c4ccc5c(c4)OCO5)n3n2)cc1 [Compound 439, 3-(1,3-benzodioxol-5-yl)-6-phenyl-imidazo[1,2-b]pyridazine] | 3090 |

| SMILES | IC50 [nM] |
| --- | --- |
| Oc1cccc(-c2ccc3ncc(-c4cccnc4)n3n2)c1 [Compound 440, 3-[3-(3-pyridyl)imidazo [1,2-b]pyridazin-6-yl]phenol] | 1810 |
| COc1ccc(-c2cnc3ccc(-c4cccs4)nn23)cc1OC [Compound 441, 3-(3,4-dimethoxy-phenyl)-6-(2-thienyl)imidazo [1,2-b]pyridazine] | 211 |
| Oc1cccc(-c2ccc3ncc(-c4cccc(O)c4)n3n2)c1 [Compound 442, 3-[3-(3-hydroxyphenyl)imidazo[1,2-b]pyridazin-6-yl]phenol] | 987 |
| CC(=O)Nc1cccc(-c2ccc3ncc(-c4ccc(CO)cc4)n3n2)c1 [Compound 443, N-[3-[3-[4-(hydroxymethyl)phenyl]imidazo [1,2-b]pyridazin-6-yl]phenyl] acetamide] | 2240 |
| CC(=O)c1cccc(-c2cnc3ccc(-c4ccc(F)cc4)nn23)c1 [Compound 444, 1-[3-[6-(4-fluorophenyl)imidazo[1,2-b]pyridazin-3-yl]phenyl] ethanone] | 4810 |
| CNC(=O)c1cccc(-c2ccc3ncc(-c4cccc(NC(C)=O)c4)n3n2)c1 [Compound 445, 3-[3-(3-acetamido-phenyl)imidazo [1,2-b]pyridazin-6-yl]-N-methyl-benzamide] | 1330 |
| CNc1cncc(-c2ccc3[nH]ccc3c2)n1 [Compound 445_0204, 6-(1H-indol-5-yl)-N-methyl-pyrazin-2-amine] | 14900 |
| OCc1cccc(-c2ccc3ncc(-c4ccccc4)n3n2)c1 [Compound 446, [3-(3-phenylimidazo [1,2-b]pyridazin-6-yl)phenyl] methanol] | 1930 |
| Cn1cc(-c2ccc3ncc(-c4ccncc4)n3n2)cn1 [Compound 447, 6-(1-methylpyrazol-4-yl)-3-(4-pyridyl)imidazo [1,2-b]pyridazine] | 30000 |
| CN(C)CCNC(=O)c1cccc(-c2ccc3ncc(-c4cccc(OC(F)(F)F)c4)n3n2)c1 [Compound 448, N-(2-dimethylamino-ethyl)-3-[3-[3-(trifluoromethoxy)phenyl]imidazo [1,2-b]pyridazin-6-yl]benzamide] | 3930 |
| OCc1ccc(-c2ccc3ncc(-c4ccc(CO)cc4)n3n2)cc1 [Compound 449, [4-[3-[4-(hydroxymethyl)phenyl]imidazo [1,2-b]pyridazin-6-yl]phenyl] methanol] | 1040 |
| COc1cc(-c2cnc3ccc(-c4ccc5c(c4)OCO5)nn23)ccc1O [Compound 450, 4-[6-(1,3-benzodioxol-5-yl)imidazo[1,2-b]pyridazin-3-yl]-2-methoxy-phenol] | 200 |
| CC(=O)c1cccc(-c2cnc3ccc(-c4cccs4)nn23)c1 [Compound 451, 1-[3-[6-(2-thienyl)imidazo [1,2-b]pyridazin-3-yl]phenyl] ethanone] | 416 |
| COc1cncc(-c2ccc3ncc(-c4cccs4)n3n2)c1 [Compound 452, 6-(5-methoxy-3-pyridyl)-3-(2-thienyl)imidazo [1,2-b]pyridazine] | 2860 |
| c1csc(-c2ccc3ncc(-c4cccs4)n3n2)c1 [Compound 453, 3,6-bis(2-thienyl)imidazo [1,2-b]pyridazine] | 4890 |
| CN(C)CCNC(=O)c1cccc(-c2cnc3ccc(-c4cnn(C)c4)nn23)c1 [Compound 454, N-(2-dimethyl-aminoethyl)-3-[6-(1-methyl-pyrazol-4-yl)imidazo[1,2-b]pyridazin-3-yl]benzamide] | 1760 |
| CN(C)CCNC(=O)c1cccc(-c2cnc3ccc(-c4ccc5c(c4)OCO5)nn23)c1 [Compound 455, 3-[6-(1,3-benzodioxol-5-yl)imidazo[1,2-b]pyridazin-3-yl]-N-(2-dimethylamino-ethyl)benzamide] | 2020 |
| CN(C)CCNC(=O)c1cccc(-c2cnc3ccc(-c4cccc(C(N)=O)c4)nn23)c1 [Compound 456, 3-[3-[3-(2-dimethylamino-ethylcarbamoyl)phenyl]imidazo [1,2-b]pyridazin-6-yl]benzamide] | 4150 |
| O=C(NCCO)c1cccc(-c2ccc3ncc(-c4cccc(O)c4)n3n2)c1 [Compound 457, N-(2-hydroxyethyl)-3-[3-(3-hydroxyphenyl)imidazo[1,2-b]pyridazin-6-yl]benzamide] | 352 |
| COc1cc(-c2cnc3ccc(-c4cc(OC)c(OC)c(OC)c4)nn23)ccc1O [Compound 458, 2-methoxy-4-[6-(3,4,5-trimethoxyphenyl)imidazo[1,2-b]pyridazin-3-yl]phenol] | 1810 |
| OCc1cccc(-c2ccc3ncc(-c4ccoc4)n3n2)c1 [Compound 459, [3-[3-(3-furyl)imidazo[1,2-b]pyridazin-6-yl]phenyl] methanol] | 7330 |
| NC(=O)c1ccc(-c2cnc3ccc(Cc4ccccc4)nn23)cc1 [Compound 460, 4-(6-benzylimidazo [1,2-b]pyridazin-3-yl)benzamide] | 711 |
| CC(=O)Nc1ccc(-c2ccc3ncc(-c4cccc(C(=O)NCCN(C)C)c4)n3n2)cc1 [Compound 461, 3-[6-(4-acetamidophenyl)imidazo[1,2-b]pyridazin-3-yl]-N-(2-dimethylamino-ethyl)benzamide] | 983 |
